Biological target: T1, CD4/Lck protein complex (Homo sapiens, UniProt P01730+P06239)
T1 construct: Detergent extracts of CEM cells were prepared by pelleting cells; endogenous in cells; host or cells: CEM (ATCC CCL 119), acute lymphoblastic CD4-positive human T-cell line; diluted detergent (NP-40) extract
Test: CD4/Lck Dissociation Assay (ELISA-based, CEM cell extracts)
Assay type: biochemical
Conditions: CEM cell detergent extract, 30 min at 30° C., OKT4 capture, C-Lck detection; read-out: IC50, concentration of test compound which dissociated 50% of the target CD4/Lck protein complex relative to controls
Description: Acute lymphoblastic CD4-positive human T-cells, from the T-cell line CEM (ATCC CCL 119), were grown in suspension in RPMI-1640 medium supplemented with 10% heat-inactivated fetal calf serum at 37° C. to a cell density of 0.8-1.2×10^6 cells/mi. Detergent extracts of CEM cells were prepared by pelleting cells, washing with Dulbecco's phosphate buffered saline without Ca and Mg (D-PBS) at 4° C. and resuspending the cell pellet in sufficient freshly prepared extraction buffer (50 mM Tris, pH 8.0, 150 mM NaCl, 2 mM EDTA, 50 mM NaF, 3% NONIDET™ P-40, 0.1 mMNa vanadate, 0.1 mM PMSF, 10 ug/ml leupeptin, 10 ug/ml aprotinin, 10 ug/ml TLCK) to yield 1.0×10^8 cells in a volume of 1 ml. The cell pellet was resuspended gently on ice until a homogeneous suspension was obtained and kept on ice for at least 30 min with occasional vortexing. The suspension was then centrifuged at 29,000 xg for 30 min at 4° C.; the clear cell extract supernatant was transferred to a clean tube and placed on ice.
Cell extracts were diluted 16-fold with ice-cold PBS (0.1M phosphate, 0.15M NaCl, ph 7.4) containing 0.5% (w/v) BSA and 0.05% (v/v) TWEEN™ 20 (PBT) to yield 6.25×10^6 cell equivalents/mi. Candidate dissociative agents were diluted to 1 mg/ml with ddH2 O and 10 ul were added to Corning plate wells. A 90 ul volume of diluted cell extract (5.6×10^5 cell equivalents) were added to the Corning plate wells containing an organic solvent to provide a final candidate agent concentration of 0.1 mg/ml. Exemplary organic solvents are DMSO and ethanol. The resulting final concentration of organic solvent was 1%. The plates were incubated for 30 min at 30° C. in a water bath and then transferred to ice. Alternatively, diluted cell extracts can be incubated with candidate agents for 2 to 3 hours at room temperature (22°-25° C.).
ELISA assay plate wells were prepared by coating MaxiSorp™ (Nunc, round-bottom wells) or TITERTEK™ plate wells overnight at 4° C. with 100 ul of 2.5 ug/ml OKT4 CD4 mAb in 0.1M NaHCO3, pH 9.2. TITERTEK™ and Corning ELISA plates were also successfully used. Other CD4 monoclonal antibodies which bind to portions of the V1 domain in the extracellular portion of the CD4 molecule may also be used. All CD4 monoclonal antibodies were either purchased from Ortho or purified from specific hybridomas available from the ATCC. OKT4 hybridoma is available under ATCC CRL 8002.
When ready for use, the coating solution was removed and the wells rinsed 3× with PBS. A blocking step was performed by adding 0.3 ml PBT per well and incubating at least 30 min at 37° C. All PBT was removed and 50 ul of diluted cell extracts were added to the test wells. 50 ul of extraction buffer/PBT (1:15, v/v) were added to the assay blank wells. The plates were sealed and incubated 1 hour at 4° C. […]

T1 sequence (P06239 2-509 limits assumed, other chains not shown): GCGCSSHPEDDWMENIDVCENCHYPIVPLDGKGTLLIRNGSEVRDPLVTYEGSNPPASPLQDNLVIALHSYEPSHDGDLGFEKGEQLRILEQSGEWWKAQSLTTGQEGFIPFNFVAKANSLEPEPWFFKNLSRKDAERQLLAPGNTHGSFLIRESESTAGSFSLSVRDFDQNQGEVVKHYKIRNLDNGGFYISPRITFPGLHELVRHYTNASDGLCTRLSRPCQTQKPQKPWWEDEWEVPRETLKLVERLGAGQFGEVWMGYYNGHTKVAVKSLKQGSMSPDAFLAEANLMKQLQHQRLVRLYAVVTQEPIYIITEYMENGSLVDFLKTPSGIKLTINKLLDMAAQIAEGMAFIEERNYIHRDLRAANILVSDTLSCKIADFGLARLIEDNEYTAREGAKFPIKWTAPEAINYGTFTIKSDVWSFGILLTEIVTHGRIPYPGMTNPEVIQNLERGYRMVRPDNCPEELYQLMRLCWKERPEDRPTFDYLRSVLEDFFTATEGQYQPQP

Compound	IC50
N#C/C(=C\c1ccc(O)c(O)c1)C(N)=O [LC-A46, trans-2-cyano, 3-(3,4-dihydroxyphenyl)acrylamide]	300 µM
CCCCCCCCCCCC1N=C(N)N2CCCC2=C1C(=O)OCCCCNC(=N)N (stereo not shown) [Crambine A]	< 100 µM
5,7-dihydroxy-4'-methoxyisoflavone [Genistein]	> 200 µM
N#CC(C#N)=Cc1ccc(O)c(O)c1 [LC-A23, 2-cyano, 3-(3,4-dihydroxyphenyl)acrylonitrile]	> 500 µM

Reference: patent US5681708A, “Method for screening compositions” (SmithKline Beecham Corporation, priority 1994, dated 1997)
